Read-outs that look alike come from different tables or passages of the source.
Biological target: HIV-1 protease (Human immunodeficiency virus type 1 group M subtype B, UniProt P04585)
Test: Fluorescence HIV-1 Protease Inhibitor Assay (Pandex)
Assay type: biochemical
Set-up: made in house; host or cells: E. coli K12 L507/pHP10D (NRRL B-18560)
Procedure: A. Preparation of Protease and Gag Fractions
Lyophils of E. coli K12 L507/pHP10D were obtained from the Northern Regional Research Laboratory, Peoria, Ill. 61604, under the accession number NRRL B-18560 (deposited Nov. 14, 1989). The lyophils were decanted into tubes containing 10 ml LB medium (10 g Bacto-tryptone, 5 g Bacto-yeast extract, and 10 g aqueous sodium chloride per liter; the pH was adjusted to 7.5 and incubated at 32° C. overnight).
A small portion of the overnight culture was placed on LB-agar (LB medium with 15 g/L Bacto-agar) plates containing 12.5 micrograms/ml tetracycline in a manner so as to obtain a single colony isolate of E. coli K12 L507/pHP10D. The single colony obtained was inoculated into 10 ml of LB medium containing 12.5 micrograms/ml tetracycline and incubated overnight at 32° C. with vigorous shaking. The 10 ml overnight culture was inoculated into LB medium containing 12.5 micrograms/ml tetracycline and incubated at 32° C. with vigorous shaking until the culture reached mid-log phase. […]
3. Preparation of Protease Fraction
A culture of E. coli K12 L507/pHP10D was grown to mid-log phase at 32° C. in LB media containing 12.5 micrograms/ml tetracycline. The cultivation temperature was quickly elevated to 40° C. to induce gene expression, and the cells were allowed to grow for 2.5 hours at this temperature before the culture was quickly chilled on ice. The cells were centrifuged and the cell pellet was resuspended in 20 ml of 50 mmol MES buffer (pH 6.0) containing 1 mmol EDTA, 1 mmol DTT, 1 mmol PMSF and 10% glycerol (“Buffer A”). Cells were lysed by sonication using a Fischer Model 300 Dismembrator and a microtip probe. Following centrifugation at 27,000×g, the supernatant was diluted to a total volume of 60 ml with Buffer A and loaded onto a 2.0×19 cm QAE-Sepharose column (1 ml/min, 4° C.), that had been equilibrated in Buffer A. The column was washed isocratically for 180 min and then eluted with a gradient eluent of […] aqueous sodium chloride in Buffer A over 120 min. Enzymatic activity was measured by HPLC using the synthetic peptide Ser-Gln-Asn-Tyr-Pro-Ile-Val as described in Margolin et al., Biochem. Biophys. Res. Commun., 167, 554-560 (1990); the production of the p1 peptide (Ser-Gln-Asn-Tyr) was measured.
The active fractions were combined, adjusted to […] 1.2M in ammonium sulfate, and applied to a 2.0×18 cm hexyl agarose column that had been equilibrated in Buffer A containing 1.2M ammonium sulfate. The sample was loaded at a flow rate of 1 ml/min at 4° C., washed with the equilibration buffer for 240 min (1 ml/min) and then eluted using a reverse linear gradient of 1.2-0M ammonium sulfate in Buffer A for 120 min at the same flow rate. The column was then washed isocratically in Buffer A for 120 min.
The active fractions were combined, concentrated to 10 ml using an Amicon stirred cell with a YM-10 membrane and then applied to a MonoS cation exchange column (1.0×10 cm) that had been equilibrated in Buffer A. The sample was loaded at a flow rate of 1 ml/min at 25° C. After washing isocratically for 30 min, the protease was eluted using a linear gradient of 0-0.45M aqueous sodium chloride in Buffer A over 40 min. The column was washed isocratically in Buffer A containing 0.45M aqueous sodium chloride for 30 minutes.
The active fractions were combined and concentrated to 200 microliters using an Amicon stirred cell and a YM-10 membrane and then the protease was applied to a Superose 6 size exclusion column equilibrated in Buffer A containing 0.1M aqueous sodium chloride.

[1] = normalized to positive control (=1.0), * = a calculated average
[2] = normalized to positive control (=1.0), * = a calculated average, read-out: Fluorescence Assay IC50 in ng/mL (converted)

Row | SMILES | Fluorescence Assay IC50 [1] | other results
1 | Cc1c(O)cccc1C(=O)N[C@@H](Cc1ccccc1)[C@H](O)CN1CCC[C@H]1C(=O)NC(C)(C)C (relative stereo) [Example 4, [2S-(2R*,2′S*,3′R*)]-1-[2′-Hydroxy-3′-phenylmethyl-4′-aza-5′-oxo-5′-(2″-methyl-3″-hydroxyphenyl)pentyl] pyrrolidine-2-N-t-butylcarboxamide] |  | Fluorescence Assay IC50 in ng/mL [1]: 1425* ng/mL
2 | Cc1c(O)cccc1C(=O)N[C@@H](Cc1ccccc1)[C@H](O)CN1CCCC[C@H]1C(=O)NC(C)(C)C (relative stereo) [Example 6, [2S-(2R*,2′S*,3′R*)]-1-[2′-Hydroxy-3′-phenylmethyl-4′-aza-5′-oxo-5′-(2″methyl-3″-hydroxyphenyl)pentyl]piperidine-2-N-t-butylcarboxamide] |  | Fluorescence Assay IC50 in ng/mL [1]: 513* ng/mL
3 | Cc1c(C(=O)N[C@@H](Cc2ccccc2)[C@H](O)CN2C[C@H]3CCCC[C@H]3C[C@H]2C(=O)NC(C)(C)C)cc[nH]c1=O (relative stereo) [Example 16, [3S-(3R*,4aR*,8aR*,2′S*,3′R*)]-2-[2′-Hydroxy-3′-phenylmethyl-4′-aza-5′-oxo-5′-(2″-oxo-3″-methyl-pyrid-4″-yl)pentyl] decahydroisoquinoline-3-N-t-butylcarboxamide] | 0.329 µg/mL | Pandex IC50 ng/ml (value as run, 35B value of the same run in footnote or parentheses): 125^e ng/ml
4 | Cc1ccc(CO)cc1C(=O)N[C@@H](Cc1ccccc1)[C@H](O)Cc1ccccc1C(=O)NC(C)(C)C (relative stereo) [Example 41, [2′R-(2′R*,3′S*)]-N-t-Butyl-2-[2′-hydroxy-3′-phenylmethyl-4′-aza-5′-oxo-5′-(2″methyl-5″-hydroxymethylphenyl)pentyl] benzamide] | 0.006 µg/mL | 
5 | CNc1cccc(C(=O)N[C@H](CSc2ccc3ccccc3c2)[C@H](O)Cc2ccccc2C(=O)NC(C)(C)C)c1C (relative stereo) [Example 43, [2′R-(2′R*,3′S*)]-N-t-Butyl-2-[2′-hydroxy-3′-naphth-2-ylthiomethyl-4′-aza-5′-oxo-5′-(2″-methyl-3″N(methyl)aminophenyl)pentyl] benzamide] | 0.54 µg/mL | 
6 | Cc1c(O)cccc1C(=O)N[C@H](CSc1ccc2ccccc2c1)[C@H](O)Cc1ccccc1C(=O)NC(C)(C)C (relative stereo) [Example 46, [2′R-(2′R*,3′S*)]-N-t-Butyl-2-[2′-hydroxy-3′-naphth-2-ylthiomethyl-4′-aza-5′-oxo-5′-(2″-methyl-3″-hydroxyphenyl)pentyl] benzamide] | 0.063 µg/mL | 
7 | Cc1ccc(N)cc1C(=O)N[C@H](CSc1ccc2ccccc2c1)[C@H](O)Cc1ccccc1C(=O)NC(C)(C)C (relative stereo) [Example 47, [2′R-(2′R*,3′S*)]-N-t-Butyl-2-[2′-hydroxy-3′-naphth-2-ylthiomethyl-4′-aza-5′-oxo-5′-(2″-methyl-5″-aminophenyl)pentyl] benzamide] | 0.091 µg/mL | 
8 | Cc1c(O)cccc1C(=O)N[C@H](CSc1ccc2ccccc2c1)[C@H](O)Cc1ccc2ccccc2c1C(=O)NC(C)(C)C (relative stereo) [Example 48, [2′R-(2′R*,3′S*)]-N-t-Butyl-2-[2′-hydroxy-3′-naphth-2-ylthiomethyl-4′-aza-5′-oxo-5′-(2″-methyl-3″-hydroxyohenyl)pentyl]-1-naphthylamide] | 0.177 µg/mL | 
9 | CC(C)(C)NC(=O)c1ccccc1C[C@@H](O)[C@@H](CSc1ccc2ccccc2c1)NC(=O)c1cccc(O)c1 (relative stereo) [Example 51, [2′R-(2′R*,3′S*)]-N-t-Butyl-2-[2′-hydroxy-3′-naphth-2-ylthiomethyl-4′-aza-5′-oxo-5′-(3″-hydroxyphenyl)pentyl] benzamide] | 0.5 µg/mL | 
10 | Cc1ccccc1C(=O)N[C@H](CSc1ccc2ccccc2c1)[C@H](O)Cc1ccccc1C(=O)NC(C)(C)C (relative stereo) [Example 52, [2′R-(2′R*,3′S*)]-N-t-Butyl-2-[2′-hydroxy-3′-naphth-2-ylthiomethyl-4′-aza-5′-oxo-5′-(2″-methylphenyl)pentyl] benzamide] | 0.281 µg/mL | 
11 | Cc1c(N)cc(N)cc1C(=O)N[C@H](CSc1ccc2ccccc2c1)[C@H](O)Cc1ccccc1C(=O)NC(C)(C)C (relative stereo) [Example 53, [2′R-(2′R*,3′S*)]-N-t-Butyl-2-[2′-hydroxy-3′-naphth-2-ylthiomethyl-4′-aza-5′-oxo-5′-(2″-methyl-3″,5″-diaminophenyl)pentyl] benzamide] | 0.055 µg/mL | 
12 | CC(C)(C)NC(=O)c1ccccc1C[C@@H](O)[C@@H](CSc1ccc2ccccc2c1)NC(=O)c1cccc(O)c1Cl (relative stereo) [Example 56, [2′R-(2′R*,3′S*)]-N-t-Butyl-2-[2′-hydroxy-3′-naphth-2-ylthiomethyl-4′-aza-5′-oxo-5′-(2″-chloro-3″-hydroxyphenyl)pentyl] benzamide] | 0.094 µg/mL | 
13 | CC(C)(C)NC(=O)c1ccccc1C[C@@H](O)[C@H](CSc1ccc2ccccc2c1)NC(=O)c1cccc2cnccc12 (relative stereo) [Example 57, [2′R-(2′R*,3′S*)]-N-t-Butyl-2-[2′-hydroxy-3′-naphth-2-ylthiomethyl-4′-aza-5′-oxo-5′-(isoquinolin-5″-yl)pentyl] benzamide] |  | IC50 [2]: 1380 nM
14 | CC(C)(C)NC(=O)c1ccccc1C[C@@H](O)[C@H](CSc1ccc2ccccc2c1)NC(=O)c1cccc2c1CCNC2 (relative stereo) [Example 58, [2′R-(2′R*,3′S*)]-N-t-Butyl-2-[2′-hydroxy-3′-naphth-2-ylthiomethyl-4′-aza-5′-oxo-5′-(1″,2″,3″,4″-tetrahydroisoquinolin-5″-yl)pentyl] benzamide] |  | IC50 [2]: 309 nM
15 | CC(C)(C)NC(=O)c1ccccc1C[C@@H](O)[C@H](CSc1ccc2ccccc2c1)NC(=O)c1cccc2ncccc12 (relative stereo) [Example 63, [2′R-(2′R*,3′S*)]-N-t-Butyl-2-[2′-hydroxy-3′-naphth-2-ylthiomethyl-4′-aza-5′-oxo-5′-(quinolin-5″-yl)pentyl] benzamide] |  | IC50 [2]: 433 nM
16 | CC(C)(C)NC(=O)c1ccccc1C[C@@H](O)[C@H](CSc1ccc2ccccc2c1)NC(=O)c1cccc2c1CCCN2 (relative stereo) [Example 64, [2′R-(2′R*,3′S*)]-N-t-Butyl-2-[2′-hydroxy-3′-naphth-2-ylthiomethyl-4′-aza-5′-oxo-5′-(1″,2″,3″,4″-tetrahydroquinolin-5″-yl)pentyl] benzamide] |  | IC50 [2]: 194 nM
17 | Cc1ccc(O)cc1C(=O)N[C@H](CSc1ccc2ccccc2c1)[C@H](O)Cc1ccccc1C(=O)NC(C)(C)C (relative stereo) [Example 72, [2′R-(2′R*,3′S*)]-N-t-Butyl-2-[2′-hydroxy-3′-naphth-2-ylthiomethyl-4′-aza-5′-oxo-5′-(2″-methyl-5″-hydroxyphenyl)pentyl] benzamide] | 0.63 µg/mL | 
18 | CC(=O)Oc1cccc(C(=O)N[C@@H](Cc2ccccc2)[C@H](O)CN2C[C@H]3CCCC[C@H]3C[C@H]2C(=O)NC(C)(C)C)c1C (relative stereo) [Example 82, [3S-(3R*, 4aR*, 8aR*, 2′S*, 3′R*)]-2-[2′-Hydroxy-3′-phenylmethyl-4′-aza-5′-oxo-5′-(2″-methyl-3″-(acetyl)hydroxyphenyl)pentyl]decahydroisoquinoline-3-N-t-butyl carboxamide] |  | IC50 (value as run, 35B value of the same run in footnote or parentheses, read-out: Pandex IC50 ng/ml (converted)): 325 nM

From patent publication US20030216569A1, “Method of making HIV protease inhibitors” (priority 1993, published 2003)
